The assay in a line: FLIPR Assays: In vitro assays were performed in a recombinant cell line expressing cDNA encoding the alpha subunit (Nav1.7, SCN9a, PN1, NE) of human Nav1.7 (Accession No. NM_002977). The cell line was provided by investigators at Yale University (Cummins et al, J. Neurosci. 18(23): 9607-9619 (1998)). For dominant selection of the Nav1.7-expressing clones, the expression plasmid co-expressed the neomycin resistance gene. The cell line was constructed in the human embryonic kidney cell line, HEK293, under the influence of the […], and stable clones were selected using limiting dilution cloning and antibiotic selection using the neomycin analogue, G418. Recombinant beta and gamma subunits were not introduced into this cell line. Additional cell lines expressing recombinant Nav1.7 cloned from other species can also be used, alone or in combination with various beta subunits, gamma subunits or chaperones.

The results in this text go back to ChEMBL document CHEMBL5727859, “Indole derivatives and use thereof” (2020).

The term IC50 denotes the concentration that inhibits the measured activity by half.

Consider `NC(=O)[C@H](O)[C@@H](O)c1cccc(-c2ccc3c(ccn3CC3CC3)c2)n1`, for which the half-inhibitory concentration (IC50) is 1020 µM.
